Measurements: patent publication US20190226949A1, “IRIDIUM COMPLEXES FOR CELLULAR IMAGING” (UNIVERSITY OF SOUTH AUSTRALIA, priority 2016, published 2019)
Where “and” joins values, the source holds several entries; their conditions need not be identical. Identical values can stand only once.

Tests used:
[1] = system: H9c2 rat cardiomyoblast cells; assay: Staining and co-staining of live H9c2 cells, confocal and two-photon microscopy; type: cell-based; conditions: for cellular localisation (co-staining): live H9c2, 20 μM, 30 minutes; for emission profile from cells: live H9c2, one-photon or two-photon excitation
Procedure: Live H9c2 rat cardiomyoblasts were incubated with the iridium complexes for 30 minutes. Complexes were made to a final concentration of 20 μM in the cell culture medium with DMSO concentration <0.2%. Under these conditions, the luminescence from the iridium complexes within the cells was detected via confocal microscopy under single-photon excitation (403 nm) or two-photon excitation (810-840 nm).
To determine the localisation of the iridium complexes, co-staining experiments were carried out with the use of ER-Tracker™ Red (endoplasmic reticulum), LysoTracker® Red DND-99 (acidic compartments), MitoTracker® Red (mitochondria), BODIPY® 500/510 C1, C12(fatty acid) or β-BODIPY® FL HPC (phospholipids). […] This difference was also in agreement with the trend of the quantum yield data illustrated before and detection of internalised complex by ICP-MS.
H9c2 rat cardiomyoblast cell line was a kind gift from Professor Janna Morrison (University of South Australia). The H9c2 cells were maintained in high-glucose (4500 mg/L) DMEM medium (Sigma-Aldrich, USA) containing 10% fetal bovine serum (FBS; In Vitro Technologies, USA) and 2 mM L-glutamine (Sigma-Aldrich, USA) at 37° C. and 5% CO2. The H9c2 cells were cultured in […] flasks, and cells (1×10^6 cells/mL) that had been passaged, from two up to five times were used for experiments. For live cell imaging and MTS assay, the H9c2 cells (1×10^5 cells/mL) were cultured overnight in either ibidi μ-Slide 8 wells in a final volume of 250 μL or 96-well microtiter plate in a final volume of 200 μL in absence of Ir-based molecular probes.
The H9c2 cells were incubated with 20 μM of Ir-based molecular probes for 30 minutes in FBS-free media (300 μL) at 37° C. and 5% CO2. These cells were washed twice with phosphate buffered saline (PBS) and once with FBS-free media, and then co-stained with either ER-Tracker™ Red (BODIPY® TR Glibenclamide), LysoTracker® Red DND-99, MitoTracker® Red CMXRos (1H,5H,11H,15H-Xantheno[2,3,4-ij:5,6,7-i′j′]diquinolizin-18-ium, 9-[4-(chloromethyl)phenyl]-2,3,6,7,12,13,16,17-octahydro-, chloride), β-BODIPY® FL C5-HPC (2-(4,4-Difluoro-5,7-Dimethyl-4-Bora-3a,4a-Diaza-s-Indacene-3-Pentanoyl)-1-Hexadecanoyl-sn-Glycero-3-Phosphocholine) or BODIPY® 500/510 C1, C12 (4,4-Difluoro-5-Methyl-4-Bora-3a,4a-Diaza-s-Indacene-3-Dodecanoic Acid), which were obtained from Life Technologies Australia Pty Ltd, Australia. Cell biology analysis was carried out with a minimum of two experimental groups. Imaging analysis was performed using a Nikon A1+ confocal microscope equipped with 403 nm, 488 nm, 561 nm and 640 nm solid-state lasers (Nikon, Japan) and OKOLab Microscope Incubator (Okolab USA Inc., USA). The final preparation of the images was conducted with Adobe Photoshop CC (Adobe Systems Inc., USA).
The H9c2 cells were incubated with 20 μM of Ir-based molecular probes for 30 minutes in FBS-free media (300 μL) at 37° C. and 5% CO2. These cells then were washed with phosphate buffered saline (PBS) and imaged using Zeiss LSM710 META NLO inverted microscope supplemented with a two-photon Mai-Tai®, tunable Ti:Sapphire femtosecond pulse laser (710-920 nm, Spectra-Physics). Fluorescence of Ir-based molecular probes was detected using the following settings: two-photon excitation wavelength 830 nm, beam splitter MBS 690+, emission interval 520-650 nm. The H9c2 cells were exposed to two-photon illumination between 810-840 nm. A continuum of lambda stack images was captured across the emission spectrum 416-728 nm. The images were acquired using a Plan-APOCHROMAT 63X/NA1.4 oil immersion objective. The final preparation of the images was conducted with Adobe Photoshop CC (Adobe Systems Inc., USA).

[2] = Lipophilicity by shake-flask method (7.4-buffered PBS / n-octanol); type: physicochemical; conditions: pH 7.4; 7.4-buffered PBS solution and n-octanol; read-out: logD7.4, distribution coefficient
Procedure: The lipophilicity of the iridium complexes was measured by the shake-flask method using 7.4-buffered PBS and n-octanol as solvents (Table 2). The values range between 1.49 and 2.68 are typical for cyclometalated iridium complexes that have not been bioconjugated. […] In general, neutral complexes have log D7.4 values above 2.00 and there is an increased in lipophilicity of extending the tetrazolato ligand with the addition of a phenyl spacer in [Ir(ppy)2(TzPyPhCN)], or by extending the conjugation on passing from pyridine to quinoline or isoquinoline for [Ir(ppy)2(TzQn)] and [Ir(ppy)2(TziQn)]. Methylation in all cases reduces lipophilicity to log D7.4 values […], with the same trend within the family of methylated complexes as previously observed for the neutral ones.

[3] = Photophysical measurements (absorption, emission, lifetime, quantum yield) in diluted solutions; type: physicochemical; conditions: for Emission λem / τaer, excited state lifetime (relative weight in parentheses) / τdeaer, excited state lifetime (relative weight in parentheses): 298K; for Φaer, quantum yield / Φdeaer, quantum yield: versus Ru(bpy)3^2+ in water (φr = 0.028); for τdeaer, excited state lifetime (relative weight in parentheses) / Φdeaer, quantum yield: deaerated; for knr: calculated as [(1 − φ)/τ] from deaerated solutions; for kr: calculated as [φ/τ] from deaerated solutions; for Φ, quantum yield: versus Ru(bpy)3^2+ in water; for red-shift of emission from ethyl laurate to dichloromethane: ethyl laurate vs dichloromethane
Source text: A summary of the photophysical data for the complexes as diluted solutions (10^−5 M) in dichloromethane, water, PBS, lysosomal fluid solution, and ethyl laurate is reported in Table 1. All the listed aqueous media also contain 0.1% DMSO to favour the solubilisation of the complexes. The various solvents have been chosen to identify potential modulations on the photophysical behaviour of the iridium complexes in diverse cellular environments such as cytoplasm, endosome/lysosomes acidic organelles, or lipid-rich compartments like membranes, endoplasmic reticulum, and lipid droplets. In general, the photophysical characteristics were measured in aerated solutions to take into account the presence of oxygen in live cells. On the other hand, dichloromethane solutions were compared as aerated and degassed to confirm oxygen sensitivity and triplet character of the excited states of the complexes.
Absorption spectra were recorded at room temperature using a Cary 4000 UV/Vis spectrometer. Uncorrected steady state emission and excitation spectra were recorded on an Edinburgh FLSP980-S2S2-stm spectrometer equipped with: i) a temperature-monitored cuvette holder; ii) 450 W Xenon arc lamp; iii) double excitation and emission monochromators; iv) a Peltier cooled Hamamatsu R928P photomultiplier tube (spectral range 200-870 nm). Emission and excitation spectra were corrected for source intensity (lamp and grating) and emission spectral response (detector and grating) by a calibration curve supplied with the instrument. According to the approach described by Demas and Crosby, luminescence quantum yields (Φem) were measured in optically dilute solutions (O.D.<0.1 at excitation wavelength) obtained from absorption spectra on a wavelength scale [nm] and compared to the reference emitter by the following equation: […]
where A is the absorbance at the excitation wavelength (λ), I is the intensity of the excitation light at the excitation wavelength (λ), n is the refractive index of the solvent, D is the integrated intensity of the luminescence and Φ is the quantum yield. The subscripts r and x refer to the reference and the sample, respectively. The quantum yield determinations were performed at identical excitation wavelength for the sample and the reference, therefore cancelling the I(λr)/I(λx) term in the equation. The quantum yields of complexes were measured against Rubipy in water (Φr=0.028). Emission lifetimes (z) were determined with the time correlated single photon counting technique (TCSPC) with the same Edinburgh FLSP980-S2S2-stm spectrometer using either a pulsed picosecond LED (EPLED/EPL 377 nm, FHWM<800 ps) or a microsecond flashlamp. The goodness of fit was assessed by minimising the reduced χ^2 function and by visual inspection of the weighted residuals. The solvents used for the preparation of the solutions for the photophysical investigations were of LR grade and the water was deionised. Degassing of the dichlorometane solutions was performed using the freeze-pump-thaw method. Experimental uncertainties are estimated to be ±8% for lifetime determinations, ±20% for quantum yields, ±2 nm and ±5 nm for absorption and emission peaks, respectively.

SMILES	cellular localisation (co-staining) [1]	emission profile from cells [1]	logD [2]	Absorption λabs [nm] (10^4ε [M^−1cm^−1]) ([3]; DCM, 10^−5 M)	Emission λem ([3]; DCM, 10^−5 M)	τaer, excited state lifetime (relative weight in parentheses) ([3]; DCM, aerated)	Φaer, quantum yield ([3]; DCM, aerated)	τdeaer, excited state lifetime (relative weight in parentheses) ([3]; DCM)	Φdeaer, quantum yield ([3]; DCM)	knr ([3]; DCM)	kr ([3]; DCM)	Absorption λabs [nm] (10^4ε [M^−1cm^−1]) ([3]; H2O with 0.1% DMSO, 10^−5 M)	Emission λem ([3]; H2O with 0.1% DMSO, aerated)	Φ, quantum yield ([3]; H2O with 0.1% DMSO, aerated)	red-shift of emission on passing from a PBS to a lysosomal fluid solution ([3]; PBS vs lysosomal fluid solution)	red-shift of emission from ethyl laurate to dichloromethane [3]
C[n+]1nc2[n](n1)[Ir]13([c]4cc(F)cc(F)c4-c4cccc[n+]41)([c]1cc(F)cc(F)c1-c1cccc[n+]13)[n+]1cc(C#N)ccc1-2 [[Ir(F2ppy)2(MeTzPyCN)]^+]	staining pattern consistent with mitochondrial localisation	blue-shifted and almost superimposable bands between these cationic complexes and their neutral analogues	1.86 ± 0.02	250 (3.56) nm (10^4ε [M^−1cm^−1]) and 316 (1.28) nm (10^4ε [M^−1cm^−1]) and 356 (0.58) nm (10^4ε [M^−1cm^−1])	600 nm	287 ns	0.057	551 ns	0.188	1.601 10^6s^−1	2.142 10^5s^−1	260 (4.12) nm (10^4ε [M^−1cm^−1]) and 309 (1.55) nm (10^4ε [M^−1cm^−1]) and 353 (0.66) nm (10^4ε [M^−1cm^−1])	636 nm	0.005	–	–
C[n+]1nc2[n](n1)[Ir]13([c]4ccccc4-c4cccc[n+]41)([c]1ccccc1-c1cccc[n+]13)[n+]1cc(-c3ccc(C#N)cc3)ccc1-2 [[Ir(ppy)2(MeTzPyPhCN)]^+]	staining pattern consistent with mitochondrial localisation	blue-shifted and almost superimposable bands between these cationic complexes and their neutral analogues	1.87 ± 0.08	267 (3.39) nm (10^4ε [M^−1cm^−1]) and 290 (3.14) nm (10^4ε [M^−1cm^−1]) and 378 (0.40) nm (10^4ε [M^−1cm^−1])	600 nm	184 ns	0.057	434 ns	0.093	2.090 10^6s^−1	2.143 10^5s^−1	–	605 nm	0.005	22 nm	almost no shift is observed
C[n+]1nc2[n](n1)[Ir]13([c]4ccccc4-c4cccc[n+]41)([c]1ccccc1-c1cccc[n+]13)[n+]1ccc3ccccc3c1-2 [[Ir(ppy)2(MeTziQn)]^+]	preferential localisation in the endoplasmic reticulum and fatty acids and phospholipids	red-shifted consistently with the photophysical data	1.49 ± 0.06	253 (6.96) nm (10^4ε [M^−1cm^−1]) and 303 (2.45) nm (10^4ε [M^−1cm^−1]) and 371 (1.24) nm (10^4ε [M^−1cm^−1])	640 nm	208 ns	0.049	485 ns	0.063	1.932 10^6s^−1	1.299 10^5s^−1	251 (6.64) nm (10^4ε [M^−1cm^−1]) and 291 (2.60) nm (10^4ε [M^−1cm^−1]) and 355 (1.36) nm (10^4ε [M^−1cm^−1])	660 nm	0.004	–	almost no shift is observed
